tested on: MCH receptors; assay: MCH receptor activity class (method not given); settings: class 1-3 by percent of control at 10^-7 M or IC50

Structure (SMILES)	class
Cc1onc(-c2ccccc2Cl)c1C(=O)N[C@H]1CC[C@@H](Nc2nc3c(c(N(C)C)n2)CCCC3)CC1 [compound 534]	2 (Class 2: The value of percent of control at 10^−7 M was from 40% to 60% or the value of IC′50 was from 50 nM to 200 nM.)
CN(C)c1nc(N[C@H]2CC[C@@H](NC(=O)C3(c4ccc(Cl)cc4)CCCC3)CC2)nc2c1CCCC2 [compound 535]	2 (Class 2: The value of percent of control at 10^−7 M was from 40% to 60% or the value of IC′50 was from 50 nM to 200 nM.)
Cc1onc(-c2c(F)cccc2Cl)c1C(=O)N[C@H]1CC[C@@H](Nc2nc3c(c(N(C)C)n2)CCCC3)CC1 [compound 536, 3-(2-chloro-6-fluorophenyl)-N-(cis-4-{[4-(dimethylamino)-5,6,7,8-tetrahydroquinazolin-2-yl]amino}cyclohexyl)-5-methylisoxazole-4-carboxamide]	1 (Class 1: The value of percent of control at 10^−7 M was less than 40% or the value of IC50 was less than 50 nM.)
CC(C)S(=O)(=O)c1csc(C(=O)N[C@H]2CC[C@@H](Nc3nc4c(c(N(C)C)n3)CCCC4)CC2)c1Cl [compound 537]	3 (Class 3 The value of percent of control at 10^−7 M was more than 60% or the value of IC50 was more than 200 nM.)
CN(C)c1nc(N[C@H]2CC[C@@H](NC(=O)c3ccc([N+](=O)[O-])cc3Cl)CC2)nc2c1CCCC2 [compound 538]	3 (Class 3 The value of percent of control at 10^−7 M was more than 60% or the value of IC50 was more than 200 nM.)
Cc1cc(C(=O)N[C@H]2CC[C@@H](Nc3nc4c(c(N(C)C)n3)CCCC4)CC2)n(C)n1 [compound 539]	2 (Class 2: The value of percent of control at 10^−7 M was from 40% to 60% or the value of IC′50 was from 50 nM to 200 nM.)
COc1ccc(C(=O)N[C@H]2CC[C@@H](Nc3nc4c(c(N(C)C)n3)CCCC4)CC2)cc1OC [compound 540]	3 (Class 3 The value of percent of control at 10^−7 M was more than 60% or the value of IC50 was more than 200 nM.)
CN(C)c1nc(N[C@H]2CC[C@@H](NC(=O)c3cccc(F)c3)CC2)nc2c1CCCC2 [compound 541]	1 (Class 1: The value of percent of control at 10^−7 M was less than 40% or the value of IC50 was less than 50 nM.)
CN(C)c1nc(N[C@H]2CC[C@@H](NC(=O)c3ccc(F)c(C(F)(F)F)c3)CC2)nc2c1CCCC2 [compound 542]	1 (Class 1: The value of percent of control at 10^−7 M was less than 40% or the value of IC50 was less than 50 nM.)
Cc1nn(-c2ccccc2)nc1C(=O)N[C@H]1CC[C@@H](Nc2nc3c(c(N(C)C)n2)CCCC3)CC1 [compound 543]	2 (Class 2: The value of percent of control at 10^−7 M was from 40% to 60% or the value of IC′50 was from 50 nM to 200 nM.)
COc1ccc(Oc2ccc([N+](=O)[O-])cc2C(=O)N[C@H]2CC[C@@H](Nc3nc4c(c(N(C)C)n3)CCCC4)CC2)cc1 [compound 544]	1 (Class 1: The value of percent of control at 10^−7 M was less than 40% or the value of IC50 was less than 50 nM.)
CN(C)c1nc(N[C@H]2CC[C@@H](NC(=O)c3cccc4ccccc34)CC2)nc2c1CCCC2 [compound 545]	3 (Class 3 The value of percent of control at 10^−7 M was more than 60% or the value of IC50 was more than 200 nM.)
CN(C)c1nc(N[C@H]2CC[C@@H](NC(=O)c3ccc4ccccc4c3)CC2)nc2c1CCCC2 [compound 546]	3 (Class 3 The value of percent of control at 10^−7 M was more than 60% or the value of IC50 was more than 200 nM.)
CN(C)c1nc(N[C@H]2CC[C@@H](NC(=O)c3ccc([N+](=O)[O-])o3)CC2)nc2c1CCCC2 [compound 547]	1 (Class 1: The value of percent of control at 10^−7 M was less than 40% or the value of IC50 was less than 50 nM.)
CN(C)c1nc(N[C@H]2CC[C@@H](NC(=O)COc3ccccc3)CC2)nc2c1CCCC2 [compound 548]	1 (Class 1: The value of percent of control at 10^−7 M was less than 40% or the value of IC50 was less than 50 nM.)
CN(C)c1nc(N[C@H]2CC[C@@H](NC(=O)COc3ccccc3[N+](=O)[O-])CC2)nc2c1CCCC2 [compound 549]	3 (Class 3 The value of percent of control at 10^−7 M was more than 60% or the value of IC50 was more than 200 nM.)
CN(C)c1nc(N[C@H]2CC[C@@H](NC(=O)c3cnc4ccccc4n3)CC2)nc2c1CCCC2 [compound 550]	1 (Class 1: The value of percent of control at 10^−7 M was less than 40% or the value of IC50 was less than 50 nM.)
COc1cc(C(=O)N[C@H]2CC[C@@H](Nc3nc4c(c(N(C)C)n3)CCCC4)CC2)cc(OC)c1OC [compound 551]	3 (Class 3 The value of percent of control at 10^−7 M was more than 60% or the value of IC50 was more than 200 nM.)
CN(C)c1nc(N[C@H]2CC[C@@H](NC(=O)c3cccc(C(F)(F)F)c3)CC2)nc2c1CCCC2 [compound 552]	1 (Class 1: The value of percent of control at 10^−7 M was less than 40% or the value of IC50 was less than 50 nM.)
CN(C)c1nc(N[C@H]2CC[C@@H](NC(=O)c3ccc(C(F)(F)F)cc3)CC2)nc2c1CCCC2 [compound 553]	3 (Class 3 The value of percent of control at 10^−7 M was more than 60% or the value of IC50 was more than 200 nM.)
CN(C)c1nc(N[C@H]2CC[C@@H](NC(=O)c3ccccc3OC(F)(F)F)CC2)nc2c1CCCC2 [compound 554]	3 (Class 3 The value of percent of control at 10^−7 M was more than 60% or the value of IC50 was more than 200 nM.)

Structure (SMILES)	class
COc1cc(COC(=O)N[C@H]2CC[C@@H](Nc3nc4c(c(N(C)C)n3)CCCC4)CC2)c([N+](=O)[O-])cc1OC [compound 555]	3 (Class 3 The value of percent of control at 10^−7 M was more than 60% or the value of IC50 was more than 200 nM.)
CN(C)c1nc(N[C@H]2CC[C@@H](NC(=O)CCCOc3ccccc3)CC2)nc2c1CCCC2 [compound 556]	3 (Class 3 The value of percent of control at 10^−7 M was more than 60% or the value of IC50 was more than 200 nM.)
COc1ccc(Br)c(C(=O)N[C@H]2CC[C@@H](Nc3nc4c(c(N(C)C)n3)CCCC4)CC2)c1 [compound 557]	3 (Class 3 The value of percent of control at 10^−7 M was more than 60% or the value of IC50 was more than 200 nM.)
CN(C)c1nc(N[C@H]2CC[C@@H](NC(=O)COc3c(F)c(F)c(F)c(F)c3F)CC2)nc2c1CCCC2 [compound 558]	3 (Class 3 The value of percent of control at 10^−7 M was more than 60% or the value of IC50 was more than 200 nM.)
COc1ccc(CC(=O)N[C@H]2CC[C@@H](Nc3nc4c(c(N(C)C)n3)CCCC4)CC2)cc1OC [compound 559]	3 (Class 3 The value of percent of control at 10^−7 M was more than 60% or the value of IC50 was more than 200 nM.)
CN(C)c1nc(N[C@H]2CC[C@@H](NC(=O)c3ccc(F)c(F)c3F)CC2)nc2c1CCCC2 [compound 560]	3 (Class 3 The value of percent of control at 10^−7 M was more than 60% or the value of IC50 was more than 200 nM.)
CN(C)c1nc(N[C@H]2CC[C@@H](NC(=O)C3CCCC3)CC2)nc2c1CCCC2 [compound 561]	3 (Class 3 The value of percent of control at 10^−7 M was more than 60% or the value of IC50 was more than 200 nM.)
CN(C)c1nc(N[C@H]2CC[C@@H](NC(=O)c3ccc(F)cc3F)CC2)nc2c1CCCC2 [compound 562]	3 (Class 3 The value of percent of control at 10^−7 M was more than 60% or the value of IC50 was more than 200 nM.)
CN(C)c1nc(N[C@H]2CC[C@@H](NC(=O)CCc3ccccc3)CC2)nc2c1CCCC2 [compound 563]	3 (Class 3 The value of percent of control at 10^−7 M was more than 60% or the value of IC50 was more than 200 nM.)
CN(C)c1nc(N[C@H]2CC[C@@H](NC(=O)c3cc(F)c(F)c(F)c3F)CC2)nc2c1CCCC2 [compound 564]	3 (Class 3 The value of percent of control at 10^−7 M was more than 60% or the value of IC50 was more than 200 nM.)
CCOc1ccc2ccccc2c1C(=O)N[C@H]1CC[C@@H](Nc2nc3c(c(N(C)C)n2)CCCC3)CC1 [compound 565]	3 (Class 3 The value of percent of control at 10^−7 M was more than 60% or the value of IC50 was more than 200 nM.)
CN(C)c1nc(N[C@H]2CC[C@@H](NC(=O)c3c(F)c(F)c(F)c(F)c3F)CC2)nc2c1CCCC2 [compound 566]	3 (Class 3 The value of percent of control at 10^−7 M was more than 60% or the value of IC50 was more than 200 nM.)
CN(C)c1nc(N[C@H]2CC[C@@H](NC(=O)c3ccc(SC(F)(F)F)cc3)CC2)nc2c1CCCC2 [compound 567]	3 (Class 3 The value of percent of control at 10^−7 M was more than 60% or the value of IC50 was more than 200 nM.)
CN(C)c1nc(N[C@H]2CC[C@@H](NC(=O)c3sc(Cl)c(Cl)c3Cl)CC2)nc2c1CCCC2 [compound 568]	3 (Class 3 The value of percent of control at 10^−7 M was more than 60% or the value of IC50 was more than 200 nM.)
CN(C)c1nc(N[C@H]2CC[C@@H](NC(=O)COc3cccc(Cl)c3)CC2)nc2c1CCCC2 [compound 569]	1 (Class 1: The value of percent of control at 10^−7 M was less than 40% or the value of IC50 was less than 50 nM.)
Cc1onc(-c2c(Cl)cccc2Cl)c1C(=O)N[C@H]1CC[C@@H](Nc2nc3c(c(N(C)C)n2)CCCC3)CC1 [compound 570]	1 (Class 1: The value of percent of control at 10^−7 M was less than 40% or the value of IC50 was less than 50 nM.)
CN(C)c1nc(N[C@H]2CC[C@@H](NC(=O)c3cccnc3Oc3ccccc3)CC2)nc2c1CCCC2 [compound 571]	2 (Class 2: The value of percent of control at 10^−7 M was from 40% to 60% or the value of IC′50 was from 50 nM to 200 nM.)
CN(C)c1nc(N[C@H]2CC[C@@H](NC(=O)c3cccnc3Sc3ccccc3)CC2)nc2c1CCCC2 [compound 572]	3 (Class 3 The value of percent of control at 10^−7 M was more than 60% or the value of IC50 was more than 200 nM.)
Cc1ccc(Oc2ncccc2C(=O)N[C@H]2CC[C@@H](Nc3nc4c(c(N(C)C)n3)CCCC4)CC2)cc1 [compound 573]	1 (Class 1: The value of percent of control at 10^−7 M was less than 40% or the value of IC50 was less than 50 nM.)
CCCN(CCC)S(=O)(=O)c1ccc(C(=O)N[C@H]2CC[C@@H](Nc3nc4c(c(N(C)C)n3)CCCC4)CC2)cc1 [compound 574]	3 (Class 3 The value of percent of control at 10^−7 M was more than 60% or the value of IC50 was more than 200 nM.)
